Test results as given in patent publication US20230241014A1, “MEK-INHIBITORS FOR THE TREATMENT OR PREVENTION OF CORONAVIRUS INFECTIONS AND/OR COVID-19 CYTOKINE STORM” (priority 2020, published 2023).

Tested on: VSV pseudotype virus carrying the SARS-CoV-2 Spike protein
Type: cell-based

## O=C(NOCC1CC1)c1ccc(F)c(F)c1Nc1ccc(I)cc1Cl [CI-1040, reference compound]
  internalization of the VSV pseudotype virus (GFP positive cells): reduction in the internalization
